Experimental data from US20040092591A1, “Therapeutic use of fused bicyclic or tricyclic amino acids” (priority 2002, published 2004).

Molecular target: T1, α2δ subunit derived from porcine brain tissue (Sus scrofa, UniProt A0A287BIN3)
T1 construct: the α2δ subunit derived from porcine brain tissue; from tissue; host or cells: porcine brain
Experiment: radioligand binding assay using [3H]gabapentin and the α2δ subunit
Settings: [3H]gabapentin radioligand
Text: The biological activity of the compounds of the invention may be measured in a radioligand binding assay using [^3H]gabapentin and the α2δ subunit derived from porcine brain tissue (Gee N. S., Brown J. P., Dissanayake V. U. K., Offord J., Thurlow R., Woodruff G. N., […] J. Biol. Chem., 1996;271:5879-[…]). Results may be expressed in terms of μM or nM α2δ binding affinity.

T1 sequence (A0A287BIN3 entry or part of it): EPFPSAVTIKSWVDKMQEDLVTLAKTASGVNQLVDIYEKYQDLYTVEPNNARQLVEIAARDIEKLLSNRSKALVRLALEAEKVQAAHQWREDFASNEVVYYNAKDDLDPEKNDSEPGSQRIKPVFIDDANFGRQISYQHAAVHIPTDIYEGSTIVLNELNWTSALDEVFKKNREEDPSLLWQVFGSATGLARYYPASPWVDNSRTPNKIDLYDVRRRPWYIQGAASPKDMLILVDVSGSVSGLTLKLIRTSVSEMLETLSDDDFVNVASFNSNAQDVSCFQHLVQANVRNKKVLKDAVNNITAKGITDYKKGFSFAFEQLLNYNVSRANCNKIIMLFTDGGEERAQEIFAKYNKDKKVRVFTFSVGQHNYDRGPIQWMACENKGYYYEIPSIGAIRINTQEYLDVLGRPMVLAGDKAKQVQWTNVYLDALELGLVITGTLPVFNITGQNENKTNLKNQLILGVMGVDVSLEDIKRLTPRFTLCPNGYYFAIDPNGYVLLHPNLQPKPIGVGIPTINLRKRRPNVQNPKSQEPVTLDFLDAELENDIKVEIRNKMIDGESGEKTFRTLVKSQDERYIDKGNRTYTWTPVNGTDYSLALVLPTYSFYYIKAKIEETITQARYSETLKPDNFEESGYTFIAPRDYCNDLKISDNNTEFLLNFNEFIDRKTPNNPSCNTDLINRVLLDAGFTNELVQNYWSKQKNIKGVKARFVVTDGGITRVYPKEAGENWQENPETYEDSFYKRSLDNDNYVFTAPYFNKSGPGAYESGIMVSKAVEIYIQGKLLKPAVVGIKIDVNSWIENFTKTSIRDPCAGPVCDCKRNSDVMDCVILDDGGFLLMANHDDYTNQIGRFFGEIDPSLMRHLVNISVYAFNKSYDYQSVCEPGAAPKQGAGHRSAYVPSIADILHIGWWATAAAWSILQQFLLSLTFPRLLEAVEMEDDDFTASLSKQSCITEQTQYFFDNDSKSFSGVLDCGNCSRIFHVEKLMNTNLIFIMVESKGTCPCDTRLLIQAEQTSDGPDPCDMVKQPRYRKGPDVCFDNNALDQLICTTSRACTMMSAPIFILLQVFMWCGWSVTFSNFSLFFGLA

| Compound | α2δ binding affinity |
| --- | --- |
| Cl.NC[C@]1(CC(=O)O)C[C@H]2CCCC[C@H]21 (racemic) [Example 4, [(1RS,6RS,7SR)-7-(Aminomethyl)bicyclo[4.2.]oct-7-yl]acetic acid hydrochloride] | 600 nM |
| Cl.NC[C@]1(CC(=O)O)C[C@H]2CCC[C@H]21 [Example 1, [(1R,5R,6S)-6-(Aminomethyl)bicycl[3.2.0]hept-6-yl]acetic acid hydrochloride] | 46.8 nM |
